{
  "source": "patent US5447912A",
  "about": "“Erection-inducing methods and compositions” (priority 1993, dated 1995)",
  "key": {"[1]": {"tested_on": "male suffering from impotence, which is substantially only neurogenic or psychogenic", "settings": "cited from earlier work; for erection after intracavernosal injection where severe atherosclerosis is not involved (background): injection into a corpus cavernosum"}, "[2]": {"tested_on": "males suffering from impotence of which severe atherosclerosis is a cause", "settings": "background statement; cited from earlier work"}, "[3]": {"tested_on": "human males", "settings": "cited from earlier work; for priapism (background): treatment of impotence"}, "[4]": {"tested_on": "male suffering from impotence, which is substantially only neurogenic or psychogenic", "test": "Intracavernosal injection coupled with sexual stimulation in males with impotence that is substantially only neurogenic or psychogenic", "type": "in vivo, human", "settings": "for time to erection sufficient for vaginal penetration: 1 ml of 30 μg/ml in phosphate buffered saline, after tourniquet release (5-10 minutes after injection) and sexual stimulation; for dose with which virtually all males achieve an erection sufficient for vaginal penetration: intracavernosal injection in physiologically acceptable diluent; for dose with which virtually all males achieve an erection sufficient for vaginal penetration / dose as low as which many males achieve an erection sufficient for vaginal penetration: coupled with sexual stimulation; for dose as low as which many males achieve an erection sufficient for vaginal penetration: intracavernosal injection", "procedure": "A preferred composition to effect an erection in male suffering from impotence, which is substantially only neurogenic or psychogenic, in accord with the methods herein, is a solution of PHM or VIP at 30 μg/ml in phosphate buffered saline at pH between about 2 and about 4.5, preferably between about 2 and about 3.5 and most preferably about 3, with the PHM or VIP the only substance in the solution that is pharmacologically active in inducing an erection. Preferably 1 ml of the preferred composition is administered as a bolus by injection into a corpus cavernosum while the penis is constricted at its base with a tourniquet. About 5-10 minutes after the injection, the tourniquet is released and, if not already started before the tourniquet is released, sexual stimulation is begun. […] The composition, however, the time between administration and sexual stimulation may be longer, if necessary."}, "[5]": {"tested_on": "males suffering from impotence of which severe atherosclerosis is a cause", "test": "Intracavernosal injection coupled with sexual stimulation in males with impotence of which severe atherosclerosis is a cause", "type": "in vivo, human", "experimental": "To minimize side-effects when VIP is employed in such a composition, it is preferred that less than about 60 μg of VIP be administered.\nThus, between about 0. […] If necessary, the time between injection and sexual stimulation may be longer, up to several hours."}, "[6]": {"tested_on": "human males", "test": "Side effects of intracavernosal injection to induce an erection", "type": "in vivo"}, "[7]": {"tested_on": "normal male (males not suffering from erectile insufficiency)", "settings": "cited from earlier work"}},
  "note": "Entries after “also recorded” stand apart in the source; their conditions may differ. Where no end group is shown, it is not given here.",
  "data": [
    {"compound": "COc1ccc(Cc2nccc3cc(OC)c(OC)cc23)cc1OC", "note": "[papaverine]", "values": [
      {"measurement": "erection after intracavernosal injection where severe atherosclerosis is not involved (background)", "setting": "[1]", "result": "cause an erection sufficient for vaginal penetration"},
      {"measurement": "induction of erection in impotence due to severe atherosclerosis (background)", "setting": "[2]", "result": "ineffective; also recorded: not susceptible to treatment"},
      {"measurement": "pain on injection (background)", "setting": "[3]; intracavernosal use", "result": "painful, burning sensation in the first two or so minutes after the injection"},
      {"measurement": "fibrosis on repeated use (background)", "setting": "[3]; repeated use", "result": "undesirable, extensive intracavernous fibrosis"},
      {"measurement": "priapism (background)", "setting": "[3]", "result": "often results in priapism"}
    ]},
    {"compound": "peptide N-terminal histidine C-terminal methionineamide (HADGVFTSDFSKLLGQLSAKKYLESLM-NH2; UniProt P01282 81-107, looked up) [PHM]", "values": [
      {"measurement": "time to erection sufficient for vaginal penetration", "setting": "[4]", "result": "≤ 5", "unit": "min"},
      {"measurement": "duration of pharmacological effect compared with VIP", "setting": "[4]; at the same dosage", "result": "somewhat longer lasting pharmacological effect than VIP"},
      {"measurement": "dose with which virtually all males achieve an erection sufficient for vaginal penetration", "setting": "[4]", "result": 30, "unit": "µg"},
      {"measurement": "dose as low as which many males achieve an erection sufficient for vaginal penetration", "setting": "[4]", "result": 10, "unit": "µg"},
      {"measurement": "induction of erection in impotence caused by severe atherosclerosis", "setting": "[5]", "result": "not effective in inducing erections"},
      {"measurement": "priapism", "setting": "[6]; induction of an erection with VIP or PHM by intracavernosal injection", "result": "does not entail priapism; also recorded: Priapism does not occur"}
    ]},
    {"compound": "CC(COc1ccccc1)N(CCCl)Cc1ccccc1", "note": "(centres unmarked) [phenoxybenzamine]", "values": [
      {"measurement": "erection after intracavernosal injection where severe atherosclerosis is not involved (background)", "setting": "[1]", "result": "cause an erection sufficient for vaginal penetration"},
      {"measurement": "induction of erection in impotence due to severe atherosclerosis (background)", "setting": "[2]", "result": "not susceptible to treatment"},
      {"measurement": "carcinogenicity (background)", "setting": "[3]; in vivo", "result": "is a carcinogen"},
      {"measurement": "priapism (background)", "setting": "[3]", "result": "often results in priapism"}
    ]},
    {"compound": "Cc1ccc(N(CC2=NCCN2)c2cccc(O)c2)cc1", "note": "[phentolamine]", "values": [
      {"measurement": "erection after intracavernosal injection where severe atherosclerosis is not involved (background)", "setting": "[1]", "result": "causes an erection sufficient for vaginal penetration"},
      {"measurement": "duration of resulting erection (background)", "setting": "[1]; intracavernosal injection, severe atherosclerosis not a cause", "result": "significantly shorter duration than that induced by intracavernosal injection of papaverine or phenoxybenzamine"},
      {"measurement": "induction of erection in impotence due to severe atherosclerosis (background)", "setting": "[2]", "result": "not susceptible to treatment"}
    ]},
    {"compound": "human vasoactive intestinal peptide [VIP]", "values": [
      {"measurement": "time to erection sufficient for vaginal penetration", "setting": "[4]", "result": "≤ 5", "unit": "min"},
      {"measurement": "dose with which virtually all males achieve an erection sufficient for vaginal penetration", "setting": "[4]", "result": 30, "unit": "µg"},
      {"measurement": "dose as low as which many males achieve an erection sufficient for vaginal penetration", "setting": "[4]", "result": 10, "unit": "µg"},
      {"measurement": "induction of erection in impotence caused by severe atherosclerosis", "setting": "[5]", "result": "not effective in inducing erections"},
      {"measurement": "side-effects observed at higher doses", "setting": "[6]; in vivo", "result": "hypotension, increased pulse rate, flushing of the face and trunk"},
      {"measurement": "erectile response coupled with visual and/or vibratory sexual stimulation", "setting": "[7]; as little as 1 μm (at 1 μm/ml of diluent) injected into a corpus cavernosum", "result": "facilitates full erection"},
      {"measurement": "erectile response without sexual stimulation", "setting": "[7]; injection of up to 20 μm of VIP (at 20 μm/ml of diluent) into a corpus cavernosum, no sexual stimulation", "result": "only slight swelling (slight tumescence) of the penis but not an erection"},
      {"measurement": "induction of erection in impotence due to severe atherosclerosis (background)", "setting": "[2]", "result": "does not induce erections"}
    ]}
  ]
}
